For data set [1], the target named is T1, oligomerization-deficient mutant of a LANA C-terminal protein fragment (aa 1008–1146) (Human herpesvirus 8 (Kaposi's sarcoma-associated herpesvirus), UniProt Q76SB0).
T1 sequence (Q76SB0 1008-1146): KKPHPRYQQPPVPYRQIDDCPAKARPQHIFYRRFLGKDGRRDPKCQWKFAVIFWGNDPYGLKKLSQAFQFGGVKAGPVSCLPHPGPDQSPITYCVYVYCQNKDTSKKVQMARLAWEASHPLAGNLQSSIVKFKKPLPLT
The data set can be described thus: Microscale thermophoresis (MST) binding assay. On the set-up: species or system Kaposi's sarcoma-associated herpesvirus (KSHV). As to conditions: read-out: KD value (MST); LANA aa 1008–1146 mutant; means of at least three replicates. The text has this: In these assays, an oligomerization-deficient mutant of a LANA C-terminal protein fragment (aa 1008–1146) and an oligonucleotide representing LANA-binding site (LBS) 1 were used, which are convenient to use and handle for the described biophysical methods, while maintaining the essential DNA-binding interface.[25]
(§1) Equation y = A2 + (A1-A2)/(1 + (x/x0)^p)
1.3 Microscale Thermophoresis (MST) Assay
Microscale Thermophoresis Assay was done as mentioned in a previous publication. 2

A short description of data set [2]: Chromatographic LogD7.4. As to conditions: reversed-phase HPLC, NUCLEODUR C18 Pyramid column; pH 7.4, HPLC-MS based; read-out: Chrom. LogD7.4. Format: physicochemical. As to the method: The next step was an in vitro ADMET profiling of the best seven compounds so far: 9, 11, 14, 19, 20, 21, and 27. The compounds were tested for their kinetic solubility (1% DMSO in PBS, pH 7.4), lipophilicity (chromatographic Log D7.4 value), cellular permeability (using Caco-2 cells), and metabolic stability (using mouse and human liver S9 fractions) (see Table 3). […]
LogD7.4 was analyzed using an HPLC−MS based method. The retention time of 12 compounds with known LogD7.4 was determined and plotted toward their LogD7.4. Linear regression was used to determine the LogD7.4 of unknown compounds. Analysis was performed using a Dionex Ultimate 3000 HPLC system coupled to a TSQ Quantum Access MAX (Thermo Fisher, Dreieich, Germany) with the following conditions: EC150/2 NUCLEODUR C18 Pyramid column, 5 μM (Macherey Nagel, Düren, Germany); eluent A: 50 mM NH4OAc pH 7.4, eluent B: acetonitrile, and flow: 0.6 mL/min. The gradient was set to 0−100% B from 0 to 2.5 min, […]
are means of two replicates. […]

Data set [3] can be described thus: Caco-2 cell permeability. The format is in vitro ADME. The settings on record: human, pH 7.4, Caco-2 monolayer, apical to basolateral. As to the method: The next step was an in vitro ADMET profiling of the best seven compounds so far: 9, 11, 14, 19, 20, 21, and 27. The compounds were tested for their kinetic solubility (1% DMSO in PBS, pH 7.4), lipophilicity (chromatographic Log D7.4 value), cellular permeability (using Caco-2 cells), and metabolic stability (using mouse and human liver S9 fractions) (see Table 3).
MTT Assay: Viability of HEK293 cells ~48 hours after treatment […]
Fig S4: MTT assay for compounds 11, 14, 19, 20 and 21 using HEK293 cells. Values are means of […]
Permeability of the compounds was assessed using Caco2 monolayers grown on Transwell® (3460 Costar, Corning). In brief, cells were seeded 60.000 cells/well in 12-well Transwell plates in DMEM medium supplemented with 10% FCS and 1% NEAA. Cells were grown for 7 to 9 days with medium replacement every other day until they reached a tight monolayer. Tightness was defined as transepithelial resistance (TEER) values >300 Ω/cm² (measured using an EVOM Volt-Ohmmeter, World Precision Instruments). At the day of permeability as say, the compound stock solutions in DMSO were diluted to 10µM in Krebs -Ringer-buffer (KRB, pH 7.4). Cells treated with KRB only served as control. Monolayer was washed two times with prewarmed KRB and incubated with 500 µl sample on the apical compartment. Samples from the basolateral side were drawn at t = 0, 15, 30, 60, 120, 180 and 300 min and replaced with fresh buffer. The plates were incubated for 5 h in a cell culture incubator with lateral shaking (200 rpm). TEER values were measured again at the end of the permeability test. Compound concentration was determined with HPLC-ESI-MS/MS in SRM mode and calculated for the cumulative transport. Values are means of three replicates.

In data set [4] the target is T2, LANA–DNA interaction (LANA DBD aa934-1162 wild type / LBS1) (Human herpesvirus 8 type P, UniProt Q9QR71).
T2 construct: LANA DBD (aa934-1162) wild type protein (200 nM final) was incubated with
T2 sequence (Q9QR71 901-1129): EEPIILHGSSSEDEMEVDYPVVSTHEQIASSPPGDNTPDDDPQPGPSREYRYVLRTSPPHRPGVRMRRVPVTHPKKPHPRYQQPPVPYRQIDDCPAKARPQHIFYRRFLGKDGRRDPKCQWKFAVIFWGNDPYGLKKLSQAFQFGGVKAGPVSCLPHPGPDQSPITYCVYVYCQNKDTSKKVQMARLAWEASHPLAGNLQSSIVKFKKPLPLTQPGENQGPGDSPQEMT
The data set can be described thus: EMSA, LANA DBD wild type with LBS1. The format is biochemical, Kaposi's sarcoma-associated herpesvirus (KSHV). Here is the method:
as §1
Fig S1: Binding affinity curves via MST for all compounds. Values are means of at least three replicates.
1.4 Electrophoretic Mobility Shift Assay (EMSA)
The EMSA was carried out with slight modific ations as described previously 2 based on the assay in Hellert et al. (2013). 3 His-tagged oligomerization-deficient LANA DBD (aa1008-1146) mutant protein or LANA DBD (aa934-1162) wild type protein (200 nM final) was incubated with a 5´-Dy682-labeled double stranded DNA probe (IBA Lifesciences) (20 nM final) for 30 minutes at RT in the dark. The reaction buffer consisted of 30 mM Tris HCl pH 7.5, 50 mM KCl, 10 mM MgCl2, 1 mM DTT, 1 mM EDTA, 10% glycerol, 0.25% Tween20, 0.5 mg/mL BSA and 0.05 mg/mL poly(dI-dC). […]
dark. 10 µL of the reaction was run on a pre -run native 5% acrylamide gel for 45 minutes at 100V with tris-borate-EDTA buffer. Images of the gels were acquired and analysed with the Odyssey (Licor) using the Image Studio software.
Fig S2: Gels of EMSA experiments at 250 μM for all compounds (A) and dose-dependent curves for compound 20 using LANA DBD mutant (B) and LANA wildtype (C) as well as LBS1. Values are means […]
Gleichung y = A2 + (A1-A2)/(1 + (x/x0)^p) […]

On to `COc1ccc(-c2cc(C)c(-n3cc(-c4ccc(C(=O)O)cc4)nn3)cn2)c(Cl)c1` [Compound 20], for which, in data set [1], the dissociation constant (Kd) is 14.1 ± 3.9 µM. Also, the chromatographic logD in data set [2] turned out to be 0.75. Moreover, in data set [3], the Papp A→B at 5 h, 10 µM stood at 10.3 ± 2.3 ×10⁻⁶ cm/s. Moreover, the IC50 in data set [4] stood at 205 µM.
